US20230271950A1, “ANTIBACTERIAL PICOLINAMIDE COMPOUNDS” (University of Notre Dame Du Lac, priority 2020, published 2023)
Converted amounts (≈) assume the structure as drawn. Like-named read-outs stand apart in the source and are kept apart here.

System: C. difficile
Experiment: MIC by broth microdilution against C. difficile strains
Assay type: cell-based, Clostridioides difficile

## CCc1c(Cl)c(O)c(Cl)c(O)c1C(=O)O[C@H]1[C@H](O)[C@H](OC)[C@H](OC/C2=C\C=C\C[C@H](O)/C(C)=C/[C@H](CC)[C@@H](O[C@@H]3OC(C)(C)[C@@H](OC(=O)C(C)C)[C@H](O)[C@@H]3O)/C(C)=C/C(C)=C/C[C@@H]([C@@H](C)O)OC2=O)O[C@@H]1C [FDX, fidaxomicin, reference compound]
C. difficile ATCC43255 relative to MRSA NRS70
  selectivity toward C. difficile relative to MRSA: 128 fold
C. difficile BAA-1801, Table 9
  MIC: 0.125 µg/mL (≈ 0.118 µM)
C. difficile HM-745, Table 9
  MIC: 0.125 µg/mL (≈ 0.118 µM)
C. difficile NR49318, Table 9
  MIC: 0.125 µg/mL (≈ 0.118 µM)
C. difficile NR-13431, Table 9
  MIC: 0.125 µg/mL (≈ 0.118 µM)
C. difficile NR-13433, Table 9
  MIC: 0.125 µg/mL (≈ 0.118 µM)
C. difficile NR-13436, Table 9
  MIC: 0.125 µg/mL (≈ 0.118 µM)
C. difficile NR-32883, Table 9
  MIC: 0.125 µg/mL (≈ 0.118 µM)
C. difficile NR-32887, Table 9
  MIC: 0.125 µg/mL (≈ 0.118 µM)
C. difficile NR-49280, Table 9
  MIC: 0.125 µg/mL (≈ 0.118 µM)
C. difficile NR-49298, Table 9
  MIC: 0.125 µg/mL (≈ 0.118 µM)
C. difficile NR-49299, Table 9
  MIC: 0.125 µg/mL (≈ 0.118 µM)
C. difficile NR-49308, Table 9
  MIC: 0.125 µg/mL (≈ 0.118 µM)
C. difficile NR-49312, Table 9
  MIC: 0.125 µg/mL (≈ 0.118 µM)
C. difficile NR-49316, Table 9
  MIC: 0.125 µg/mL (≈ 0.118 µM)
C. difficile NR-49319, Table 9
  MIC: 0.125 µg/mL (≈ 0.118 µM)
C. difficile NR-49320, Table 9
  MIC: 0.125 µg/mL (≈ 0.118 µM)
C. difficile NR-49321, Table 9
  MIC: 0.125 µg/mL (≈ 0.118 µM)
Clostridioides difficile
  MIC: 0.125 µg/mL (≈ 0.118 µM)
Clostridioides difficile, ATCC43255, C. difficile ATCC43255 (TcdA+, TcdB+), Table 1, read-out: MIC
  MIC: 0.06 µg/mL (≈ 0.0567 µM)
Clostridioides difficile, ATCC43255, C. difficile ATCC43255, Table 7, read-out: MIC
  MIC: 0.0625 µg/mL (≈ 0.0591 µM)
Clostridioides difficile, ATCC43255, C. difficile ATCC43255, Table 9, read-out: MIC
  MIC: 0.06 µg/mL (≈ 0.0567 µM)
Clostridioides difficile, ATCC43598, C. difficile ATCC43598, Table 7, read-out: MIC
  MIC: 0.01 µg/mL (≈ 0.00945 µM)
Clostridioides difficile, ATCC43598, C. difficile ATCC43598, Table 9, read-out: MIC
  MIC: 0.01 µg/mL (≈ 0.00945 µM)
Clostridioides difficile, BAA1801
  MIC: 0.125 µg/mL (≈ 0.118 µM)
Clostridioides difficile, BAA1803, C. difficile BAA-1803, Table 7, read-out: MIC
  MIC: 1 µg/mL (≈ 0.945 µM)
Clostridioides difficile, BAA1803, C. difficile BAA-1803, Table 9, read-out: MIC
  MIC: 1 µg/mL (≈ 0.945 µM)
Clostridioides difficile, BAA1804
  MIC: 0.125 µg/mL (≈ 0.118 µM)
Clostridioides difficile, BAA1804, C. difficile BAA-1804, Table 7, read-out: MIC
  MIC: < 0.25 µg/mL
Clostridioides difficile, BAA1812, C. difficile BAA-1812, Table 7, read-out: MIC
  MIC: 0.015 µg/mL (≈ 0.0142 µM)
Clostridioides difficile, BAA1812, C. difficile BAA-1812, Table 9, read-out: MIC
  MIC: 0.015 µg/mL (≈ 0.0142 µM)
Clostridioides difficile, BAA1814, C. difficile BAA-1814, Table 7, read-out: MIC
  MIC: 0.03 µg/mL (≈ 0.0284 µM)
Clostridioides difficile, BAA1814, C. difficile BAA-1814, Table 9, read-out: MIC
  MIC: 0.03 µg/mL (≈ 0.0284 µM)
Clostridioides difficile, BAA1870, C. difficile BAA-1870 (NAP1, ribotype 27), Table 1, read-out: MIC
  MIC: 0.25 µg/mL (≈ 0.236 µM)
Clostridioides difficile, BAA1870, C. difficile BAA-1870, Table 7, read-out: MIC
  MIC: 0.25 µg/mL (≈ 0.236 µM)
Clostridioides difficile, BAA1870, C. difficile BAA-1870, Table 9, read-out: MIC
  MIC: 0.25 µg/mL (≈ 0.236 µM)
Clostridioides difficile, C. difficile 23691 (VR, vancomycin-resistant), Table 7, read-out: MIC
  MIC: 4 µg/mL (≈ 3.78 µM)
Clostridioides difficile, C. difficile 23691, clinical isolate resistant to VAN, Table 1, read-out: MIC
  MIC: 4 µg/mL (≈ 3.78 µM)
Clostridioides difficile, C. difficile 23691, Table 9, read-out: MIC
  MIC: 4 µg/mL (≈ 3.78 µM)
Clostridioides difficile, C. difficile 23828 (FR, fidaxomicin-resistant), Table 7, read-out: MIC
  MIC: > 8 µg/mL
Clostridioides difficile, C. difficile 23828, clinical isolate resistant to FDX, Table 1, read-out: MIC
  MIC: > 8 µg/mL
Clostridioides difficile, C. difficile 23828, Table 9, read-out: MIC
  MIC: > 8 µg/mL
Clostridioides difficile, C. difficile 24531 (VR, vancomycin-resistant), Table 7, read-out: MIC
  MIC: 0.01 µg/mL (≈ 0.00945 µM)
Clostridioides difficile, C. difficile 24531, Table 9, read-out: MIC
  MIC: 0.01 µg/mL (≈ 0.00945 µM)
Clostridioides difficile, C. difficile 24923 (VR, vancomycin-resistant), Table 7, read-out: MIC
  MIC: 0.0625 µg/mL (≈ 0.0591 µM)
Clostridioides difficile, C. difficile 24923, Table 9, read-out: MIC
  MIC: 0.06 µg/mL (≈ 0.0567 µM)
Clostridioides difficile, C. difficile 26675 (MR, metronidazole-resistant), Table 7, read-out: MIC
  MIC: 4 µg/mL (≈ 3.78 µM)
Clostridioides difficile, C. difficile 26675, clinical isolate resistant to MTZ, Table 1, read-out: MIC
  MIC: 4 µg/mL (≈ 3.78 µM)
Clostridioides difficile, C. difficile 26675, Table 9, read-out: MIC
  MIC: 4 µg/mL (≈ 3.78 µM)
Clostridioides difficile, C. difficile 27081 (FR, fidaxomicin-resistant), Table 7, read-out: MIC
  MIC: > 8 µg/mL
Clostridioides difficile, C. difficile 27081, Table 9, read-out: MIC
  MIC: > 8 µg/mL
Clostridioides difficile, C. difficile 27173 (MR, metronidazole-resistant), Table 7, read-out: MIC
  MIC: 0.01 µg/mL (≈ 0.00945 µM)
Clostridioides difficile, C. difficile 27173, Table 9, read-out: MIC
  MIC: 0.01 µg/mL (≈ 0.00945 µM)
Clostridioides difficile, C. difficile HM-88, Table 9, read-out: MIC
  MIC: 0.03 µg/mL (≈ 0.0284 µM)
Clostridioides difficile, C. difficile HM-89, Table 9, read-out: MIC
  MIC: 0.03 µg/mL (≈ 0.0284 µM)
Clostridioides difficile, C. difficile HM-746, Table 9, read-out: MIC
  MIC: ≤ 0.03 µg/mL
Clostridioides difficile, C. difficile HM-747, Table 9, read-out: MIC
  MIC: 0.06 µg/mL (≈ 0.0567 µM)
Clostridioides difficile, C. difficile NR49292, Table 7, read-out: MIC
  MIC: 0.5 µg/mL (≈ 0.473 µM)
Clostridioides difficile, C. difficile NR49292, Table 9, read-out: MIC
  MIC: 0.5 µg/mL (≈ 0.473 µM)
Clostridioides difficile, C. difficile NR49294, Table 7, read-out: MIC
  MIC: 0.01 µg/mL (≈ 0.00945 µM)
Clostridioides difficile, C. difficile NR49294, Table 9, read-out: MIC
  MIC: 0.01 µg/mL (≈ 0.00945 µM)
Clostridioides difficile, C. difficile NR49302, Table 7, read-out: MIC
  MIC: 0.03 µg/mL (≈ 0.0284 µM)
Clostridioides difficile, C. difficile NR49302, Table 9, read-out: MIC
  MIC: 0.03 µg/mL (≈ 0.0284 µM)
Clostridioides difficile, C. difficile NR49305, Table 7, read-out: MIC
  MIC: 0.01 µg/mL (≈ 0.00945 µM)
Clostridioides difficile, C. difficile NR49305, Table 9, read-out: MIC
  MIC: 0.01 µg/mL (≈ 0.00945 µM)
Clostridioides difficile, C. difficile NR49310, Table 7, read-out: MIC
  MIC: ≤ 0.01 µg/mL
Clostridioides difficile, C. difficile NR49310, Table 9, read-out: MIC
  MIC: ≤ 0.01 µg/mL
Clostridioides difficile, C. difficile NR-13427, Table 9, read-out: MIC
  MIC: 0.03 µg/mL (≈ 0.0284 µM)
Clostridioides difficile, C. difficile NR-13428, Table 9, read-out: MIC
  MIC: ≤ 0.03 µg/mL
Clostridioides difficile, C. difficile NR-13429, Table 9, read-out: MIC
  MIC: 0.25 µg/mL (≈ 0.236 µM)
Clostridioides difficile, C. difficile NR-13430, Table 9, read-out: MIC
  MIC: ≤ 0.03 µg/mL
Clostridioides difficile, C. difficile NR-13434, Table 9, read-out: MIC
  MIC: 0.06 µg/mL (≈ 0.0567 µM)
Clostridioides difficile, C. difficile NR-13435, Table 9, read-out: MIC
  MIC: ≤ 0.03 µg/mL
Clostridioides difficile, C. difficile NR-13437, Table 9, read-out: MIC
  MIC: 0.25 µg/mL (≈ 0.236 µM)
Clostridioides difficile, C. difficile NR-13438, Table 9, read-out: MIC
  MIC: 0.06 µg/mL (≈ 0.0567 µM)
Clostridioides difficile, C. difficile NR-13553, Table 9, read-out: MIC
  MIC: ≤ 0.03 µg/mL
